The source made the active and inactive calls. The calls are words filed in the database; no cut-off is given here.
What was measured:
Assay type in all cases: functional, cell-based
[1] = Reactivation of MeCp2 […] expression in human GM11272 cells at 10 to 100 nM by PCR method
[2] = Reactivation of MeCp2 […] expression in human GM11272 cells after 6 days by PCR method
[3] = Reactivation of MeCp2 […] expression in human GM11272 cells at 1 to 10000 nM by PCR method
[4] = Reactivation of MeCp2 […] expression in human GM11272 cells at 1 to 100 nM by PCR method

| SMILES | Activity [2] | Activity [4] | other results |
| --- | --- | --- | --- |
| O=C(O)[C@H](Cc1c[nH]c2ccccc12)N1C(=O)c2ccccc2C1=O |  |  | Activity [1]: inactive |
| Nc1ccccc1NC(=O)c1ccc(CNC(=O)OCc2cccnc2)cc1 | inactive |  |  |
| CCCC(CCC)C(=O)O |  |  | Activity [3]: inactive |
| CCC(=O)CCCCC[C@@H]1NC(=O)[C@H]2CCCCN2C(=O)[C@H]([C@@H](C)CC)NC(=O)[C@H](Cc2cn(OC)c3ccccc23)NC1=O | inactive |  |  |
| Nc1ncn([C@H]2C[C@H](O)[C@@H](CO)O2)c(=O)n1 | inactive | inactive |  |
| O=C(CCCCCCC(=O)Nc1ccccc1)NO |  |  | Activity [1]: inactive |
| CC(/C=C/C(=O)NO)=C\[C@@H](C)C(=O)c1ccc(N(C)C)cc1 |  | inactive |  |
| Cc1[nH]c2ccccc2c1CCNCc1ccc(/C=C/C(=O)NO)cc1 |  | inactive |  |
| O=c1ncccn1[C@@H]1O[C@H](CO)[C@@H](O)[C@H]1O |  | inactive |  |

— ChEMBL document CHEMBL1833834, “Clonal Rett Syndrome cell lines to test compounds for activation of wild-type MeCP2 expression” (Bioorg Med Chem Lett, 2011)
